Results as given in the supplement of paper PMC11451515.

How the values were obtained:
Test in all cases: AUC of viability dose-response curve (% viability x log10 dose units); higher = less sensitive
Conditions in all cases: 48 h
NOMO1 = tested on: NOMO1
Method in brief: (§1)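 In 1536-well plates, leukemia cells adapted to each medium (500 or 1000 cells/well) were exposed for 48 h at 37°C to library compounds in DMSO across 11 threefold doses, 47 μM down to 0.79 nM. Viability was read by CellTiter-Glo One luminescence and normalised per plate to DMSO and cell-free wells. A four-parameter log-logistic fit over log10 doses was integrated by trapezoidal rule. This yielded the area under the curve, with over-full-viability curves scaled and quality-control failures dropped.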

SEM cells = tested on: SEM cells
Method in brief: as §1

P12-Ichikawa = tested on: P12-Ichikawa
Method in brief: as §1

[1] = RPMI 5 mM glucose + 10% dialyzed FBS

| Compound | AUC of viability dose-response curve (NOMO1; HPLM + 10% dialyzed FBS) | AUC of viability dose-response curve (NOMO1; RPMI 5 mM glucose + 10% FBS) | AUC of viability dose-response curve (NOMO1; [1]) | AUC of viability dose-response curve (SEM cells; HPLM + 10% dialyzed FBS) | AUC of viability dose-response curve (SEM cells; RPMI 5 mM glucose + 10% FBS) | AUC of viability dose-response curve (SEM cells; [1]) | AUC of viability dose-response curve (P12-Ichikawa; HPLM + 10% dialyzed FBS) | AUC of viability dose-response curve (P12-Ichikawa; RPMI 5 mM glucose + 10% FBS) | AUC of viability dose-response curve (P12-Ichikawa; [1]) |
| --- | --- | --- | --- | --- | --- | --- | --- | --- | --- |
| O=C1Nc2ccc(I)cc2/C1=C/c1cc(Br)c(O)c(Br)c1 | 469 | 457 | 448 | 466 | 457 | 451 | 469 | 468 | 458 |
| CC[C@@]1(O)C(=O)OC\C2=C1\C=C\3N(CC4=C3N=C5C=CC=CC5=C4)C2=O | 248 | 241 | 246 | 190 | 158 | 165 | 172 | 164 | 161 |
| CN[C@@H]1Cc2cccc3[nH]c(=O)n(c23)C1 | 455 | 450 | 458 | 442 | 454 | 452 | 449 | 445 | 456 |
| COc1cc([C@H]2Oc3cc([C@H]4Oc5cc(O)cc(O)c5C(=O)[C@@H]4O)ccc3O[C@@H]2CO)ccc1O | 470 | 465 | 452 | 455 | 473 | 467 | 464 | 446 | 456 |
| COC(=O)C1C2CC3c4[nH]c5cc(OC)ccc5c4CCN3CC2CC(OC(=O)c2cc(OC)c(OC)c(OC)c2)C1OC (centres undefined) | 465 | 454 | 468 | 462 | 459 | 456 | 467 | 471 | 445 |
| CCCCCCCCCC(=O)N[C@@H](Cc1c[nH]c2ccccc12)C(=O)N[C@H](CC(N)=O)C(=O)N[C@@H](CC(=O)O)C(=O)N[C@@H]1C(=O)NCC(=O)N[C@@H](CCCN)C(=O)N[C@@H](CC(=O)O)C(=O)N[C@H](C)C(=O)N[C@@H](CC(=O)O)C(=O)NCC(=O)N[C@H](CO)C(=O)N[C@@H]([C@@H](C)CC(=O)O)C(=O)N[C@@H](CC(=O)c2ccccc2N)C(=O)O[C@@H]1C | 459 | 466 | 469 | 458 | 455 | 469 | 459 | 454 | 460 |
| C[S+](=O)([O-])c1cccc(CNc2nc(Nc3ccc4c(c3)CCC(=O)N4)ncc2C(F)(F)F)c1 | 436 | 446 | 454 | 331 | 367 | 355 | 450 | 444 | 451 |
| O=C(Nc1ncc(-c2cc(C(F)F)nn2-c2c(Cl)cccc2Cl)s1)C1CC1 | 398 | 381 | 370 | 347 | 333 | 340 | 329 | 326 | 345 |
| CC(C)c1ccc(Cn2ccc3c4c(N)nc(NC5CC5)nc4ccc32)cc1 | 339 | 409 | 384 | 343 | 383 | 390 | 343 | 392 | 368 |
| Nc1nc(N)c2nc(-c3cccc(O)c3)c(-c3cccc(O)c3)nc2n1 | 402 | 443 | 440 | 409 | 430 | 420 | 409 | 445 | 454 |
| C[S+](=O)([O-])c1ccc(-c2cnc(N)c(C(=O)Nc3ccccc3)n2)cc1 | 435 | 462 | 455 | 413 | 423 | 408 | 462 | 453 | 449 |
| CN(C)c1nc(Cc2ccc(NC(=O)c3ccc4ccccc4c3)cc2)nc(Cl)c1CC(=O)O | 377 | 401 | 392 | 461 | 447 | 455 | 440 | 427 | 434 |
| Cc1ccc([S+](=O)([O-])Nc2nc3ccccc3nc2Nc2ccc3nsnc3c2)cc1 | 361 | 360 | 365 | 410 | 440 | 409 | 422 | 405 | 438 |
| O=C(O)/C=C/c1ccc(O)c(O)c1 | 454 | 453 | 462 | 447 | 423 | 428 | 449 | 447 | 443 |
| COC[C@H](c1ccc(C(F)(F)F)cc1)N1CCN(C2(C)CCN(C(=O)c3c(C)ncnc3C)CC2)C[C@H]1C.O=C(O)/C=C\C(=O)O | 409 | 411 | 424 | 445 | 410 | 450 | 469 | 454 | 467 |
| Cc1cnc(C(=O)O)c[n+]1[O-] | 400 | 454 | 447 | 450 | 416 | 475 | 460 | 468 | 441 |

| Compound | AUC of viability dose-response curve (NOMO1; HPLM + 10% dialyzed FBS) | AUC of viability dose-response curve (NOMO1; RPMI 5 mM glucose + 10% FBS) | AUC of viability dose-response curve (NOMO1; [1]) | AUC of viability dose-response curve (SEM cells; HPLM + 10% dialyzed FBS) | AUC of viability dose-response curve (SEM cells; RPMI 5 mM glucose + 10% FBS) | AUC of viability dose-response curve (SEM cells; [1]) | AUC of viability dose-response curve (P12-Ichikawa; HPLM + 10% dialyzed FBS) | AUC of viability dose-response curve (P12-Ichikawa; RPMI 5 mM glucose + 10% FBS) | AUC of viability dose-response curve (P12-Ichikawa; [1]) |
| --- | --- | --- | --- | --- | --- | --- | --- | --- | --- |
| Nc1cc(C(F)(F)F)c(-c2cc(N3CCOCC3)nc(N3CCOCC3)n2)cn1 | 317 | 340 | 334 | 307 | 283 | 299 | 328 | 334 | 329 |
| Oc1cccc(-c2nc(N3CCOCC3)c3oc4ncccc4c3n2)c1 | 464 | 466 | 459 | 337 | 302 | 312 | 449 | 401 | 430 |
| CN(C)CCOc1ccc(-c2nc(-c3ccncc3)c(-c3ccc4c(c3)CC/C4=N\O)[nH]2)cc1 | 450 | 465 | 437 | 458 | 455 | 466 | 456 | 454 | 452 |
| CCN(C(=O)C/1=C(O)/C2=C(C=CC=C2Cl)N(C)C1=O)C3=CC=CC=C3 | 319 | 306 | 328 | 272 | 258 | 250 | 356 | 322 | 308 |
| CCOC(=O)c1cncn1[C@H](C)c1ccccc1 | 443 | 477 | 442 | 438 | 468 | 435 | 463 | 452 | 466 |
| CC1=C(CC(=O)O)c2cc(F)ccc2/C1=C\c1ccc([S+](C)[O-])cc1 (centres undefined) | 448 | 453 | 445 | 450 | 422 | 430 | 458 | 451 | 449 |
| CO/C1=C/C(C)=C\[C@@H](C)[C@@H](O)[C@@H](C)C/C(C)=C\C=C/[C@H](OC)[C@@H]([C@@H](C)[C@@H](O)[C@H](C)[C@@]2(O)C[C@@H](O)[C@H](C)[C@@H](C(C)C)O2)OC1=O | 208 | 229 | 218 | 213 | 211 | 206 | 291 | 263 | 225 |
| COC1=C2C[C@@H](C)C[C@H](OC)[C@H](O)[C@@H](C)/C=C(\C)[C@H](OC(N)=O)[C@@H](OC)/C=C/C=C(\C)C(=O)NC(=CC1=O)C2=O | 430 | 438 | 440 | 402 | 396 | 395 | 416 | 410 | 399 |
| COCCOc1nc(-c2ccc(Cl)c(Cl)c2)n(-c2ccc(NC(=O)CCl)cc2)n1 | 460 | 408 | 433 | 444 | 430 | 430 | 469 | 450 | 421 |
| CC/1=C(/C(CC(=O)N1)C2=CC=C(C=C2)C(F)(F)F)C(=O)NC3=C(F)C=C4[NH]N=CC4=C3 (centres undefined) | 422 | 389 | 415 | 405 | 418 | 411 | 442 | 450 | 448 |
| O=C(O)CCn1c2c(c3ccccc31)C[C@H](N[S+](=O)([O-])c1ccc(F)cc1)CC2 | 458 | 457 | 448 | 471 | 449 | 472 | 465 | 468 | 453 |
| CCCCC(C=O)NC(=O)C(CC(C)C)NC(=O)OCc1ccccc1 (centres undefined) | 409 | 410 | 424 | 430 | 439 | 393 | 422 | 393 | 377 |
| Cc1cc(Nc2nc(N[C@@H](C)c3ccc(F)cc3)c(C#N)cc2F)n[nH]1 | 414 | 362 | 394 | 367 | 368 | 364 | 396 | 399 | 393 |
| OC(=O)C(CC/1=C/C(=O)NC2=CC=CC=C12)NC(=O)C3=CC=C(Cl)C=C3 (centres undefined) | 469 | 454 | 469 | 447 | 467 | 470 | 468 | 436 | 465 |
| Cc1csc(NC(=O)c2sc3nc4c(c(C(F)(F)F)c3c2N)CCC4)n1 | 449 | 419 | 441 | 429 | 442 | 420 | 444 | 433 | 394 |
